Source: US10787640B2, “Producing mesodermal cell types and methods of using the same” (The Board of Trustees of the Leland Stanford Junior …, priority 2015, dated 2020)

Key:
[1] = system: day 5 hematopoietic intermediates; experiment: Day 5-7 continued differentiation of hematopoietic intermediates, factor withholding; format: cell-based, human
Method: SOX17^mCherry/+ H9 hESCs (referred to as SOX17-mCherry hESCs throughout this study) were routinely propagated in mTeSR1 (StemCell Technologies)+1% penicillin/streptomycin. They were passaged ˜1:12-1:25 as fine clumps using Accutase (Gibco) onto plates precoated with a Geltrex substratum (Gibco) in mTeSR1 medium supplemented with thiazovivin ([…]; a ROCK inhibitor). After overnight plating, hESCs were washed (DMEM/F12) and differentiated towards posterior PS using BMP4 (15-40 ng/mL, R&D Systems), CHIR99021 ([…]), FGF2 (20 ng/mL, Invitrogen) and PIK90 (100 nM, Calbiochem) for 24 hours, with the optional inclusion of Activin (30 ng/mL, R&D Systems) to induce mid PS. Day 1 mid or posterior PS was subsequently washed (DMEM/F12) and further differentiated using BMP4 (40 ng/mL), GDC-0941 (0.25-2.5 μM, Cellagen Technology), Forskolin (10 μM, Tocris), SB-505124 ([…]), VEGF (100 ng/mL, R&D Systems), XAV939 (1 μM, Tocris) and ascorbic acid-2-phosphate (200 μg/mL, Sigma) for 24 hours. Day 2 cultures were further directed into the definitive hematopoietic lineage/hemogenic precursors by Activin A (15 ng/mL), GDC-0941 (0.25-2.5 μM), VEGF (100 ng/mL), XAV939 (1 μM) and ascorbic acid-2-phosphate (200 μg/mL) for 24 hours. Day 3 definitive hematopoietic progenitors were subsequently differentiated into early Runx1^lowGfi1^low hemogenic intermediates through day 4-5 treatment with BMP4 (50 ng/mL), TTNPB (500 nM), VEGF (100 ng/mL) and XAV939 (1 μM) for 48 hours, supplemented with SB-505124 (2 μM) on day 5. Day 5 populations were then dissociated into single cells, counted and reaggregated in individual wells of a low-adhesion V-bottom or U-bottom 96-well plate (e.g., Thermo Fisher, catalog no. 249952) with ˜15,000-20,000 cells seeded per well. Aggregates were cultured for 48 additional hours until day 7 in BMP4 (50 ng/mL), TTNPB (500 nM), VEGF (100 ng/mL), XAV939 (1 μM), SB-505124 (2 μM), SCF (25-50 ng/mL, R&D Systems), IL6 (10 ng/mL, R&D Systems) and IL6RA (250-1000 ng/mL, R&D Systems). All differentiation was conducted in serum-free CDM2 fully-defined basal media.

[2] = system: hESC-derived primitive streak; experiment: Paraxial versus lateral/cardiac mesoderm specification from primitive streak; format: cell-based, human
Method: Subsequently, day 1 anterior primitive streak was briefly washed (DMEM/F12) and differentiated towards day 2 paraxial mesoderm for 24 hours (1 μM A-83-01+3 μM CHIR99021+250 nM LDN-193189+20 ng/mL FGF2). Separately, day 1 mid primitive streak was differentiated towards day 2 lateral mesoderm for 24 hours (1 μM A-83-01+30 ng/mL BMP4+1 μM C59; with 2 μM SB-505124 sometimes used instead of A-83-01).
B) To assess whether FGF/ERK signaling was permissive for both paraxial and lateral/cardiac mesoderm specification, hESCs were differentiated into primitive streak for 24 hours, and then transferred into (i) A-83-01+DM3189 (“AD”; permissive for paraxial mesoderm) or (iii) A-83-01+BMP4+C59 (“AB+C59”; permissive for lateral/cardiac mesoderm) for 24 hours in the presence or absence of a FGF agonist (FGF2, 10-20 ng/mL), an FGFR inhibitor (PD173074, 100 nM) or a MAPK/ERK inhibitor (PD0325901, 500 nM) for 24 hours and qPCR for all experiments was conducted on day 2 (that is, after 48 total hours of hESC differentiation). To assess whether TGFβ signaling altered paraxial, intermediate and lateral/cardiac mesoderm specification, hESCs were differentiated into primitive streak for 24 hours, and then transferred into (ii) DM3189+FGF2 (“DF”; permissive for paraxial mesoderm) or (iv) BMP4+C59 (“B+C59”; permissive for lateral/cardiac mesoderm) for 24 hours in the presence of a TGFβ agonist (Activin, 10-25 ng/mL) or a TGFβR inhibitor (A-83-01, 1 μM) for 24 hours or (v) BMP4 (3 ng/mL)+FGF2 (20 ng/mL) (“B3F20”) for 24 hours in the presence of a TGFβ agonist (Activin, 3-25 ng/mL) or a TGFβR inhibitor (A-83-01, 1 μM) and qPCR for all experiments was conducted on day 2 (that is, after 48 total hours of hESC differentiation). […] Therefore, hESCs were differentiated towards primitive streak for 24 hours, and then subsequently transferred into (i) A-83-01+CHIR99021+FGF2 (ACF) in the presence or absence of one of two BMPR inhibitors (DMH1, 1 μM or LDN193189, 250 nM) for 24 hours and qPCR was conducted on day 2. Alternately, hESC-derived PS was transferred into (ii) CHIR99021+DM3189+FGF2 (CDF) for 24 hours in the presence or absence of a TGFβ agonist (25 ng/mL Activin) or one of two TGFβR inhibitors (SB-505124, 2 μM or A-83-01, 1 μM) for 24 hours and qPCR was conducted on day 2. […] E) To test the role of FGF in lateral mesoderm induction (on day 2 of hESC differentiation), NKX2.5-GFP hESCs were differentiated into mid primitive streak for 24 hours, and then were treated with BMP4+C59+SB505124 in the presence of an FGF agonist (FGF2, 20-50 ng/mL) or a FGFR inhibitor (PD173074, 100 nM) or a MAPK/ERK inhibitor (PD0325901, 500 nM) for 24 hours, and then all cultures were treated with BMP4+C59+SB505124+FGF2 for 24 hours more before being harvested on day 3 for FACS.

Molecule: Cc1cccc(-c2[nH]c(C(C)(C)C)nc2-c2ccc3c(c2)OCO3)n1 [SB-505124, 2-[4-(1,3-Benzodioxol-5-yl)-2-(1,1-dimethylethyl)-1H-imidazol-5-yl]-6-methyl-pyridine]
- GFI1B expression ([1]; individually withholding the factor from the 8 factors, 48 hours): strongly diminished
- paraxial mesoderm induction (qPCR day 2) ([2]; ACF with DMH1 1 μM or LDN193189 250 nM, CDF with SB-505124 2 μM or A-83-01 1 μM, 24 hours): serve to induce paraxial mesoderm
- NKX2.5-GFP+ cardiac mesoderm induction (FACS day 3) ([2]; BMP4 (50 ng/mL)+C59, 48 hours, SB-505124 2 μM or A-83-01 1 μM, P<0.01): increased NKX2.5-GFP^+ cardiac mesoderm induction

B1: BMP4: BMP family ligand, BMP agonist (protein, UniProt P12644 293-408, looked up)
Bone morphogenetic protein 4: SPKHHSQRARKKNKNCRRHSLYVDFSDVGWNDWIVAPPGYQAFYCHGDCPFPLADHLNSTNHAIVQTLVNSVNSSIPKACCVPTELSAISMLYLDEYDKVVLKNYQEMVVEGCGCR
- hematopoietic or venous gene expression ([1]; withdrawal of the factor): minimally effected hematopoietic or venous gene expression
- lateral mesoderm specification (qPCR) ([2]; A8301+C59, 24 hours, BMP4 10-30 ng/mL): required to drive lateral mesoderm specification
